Results taken from patent US20250302721A1, “ANTI-AGING EYE CREAM” (L'OREAL, priority 2024, published 2025).

Assays:
[1] = system: Full-thickness reconstructed skin (T-Skin, Episkin); assay: sGAG release in full-thickness reconstructed skin (sulfated glycosaminoglycan assay kit); assay type: cell-based; settings: PX 0.02% and 0.06% in medium, Day 11 through Day 15, medium supernatant, n=3, FIG. 7
Procedure: Full-thickness reconstructed skin (T-Skin, Episkin) was treated systemically with hydroxypropyl tetrahydropyrantriol (PX, 0.02% and 0.06%) based on the T-skin evaluation test. Tissues are received on medium at day 11 and stored at 37C (95% humidity and 5% CO2) until the end of treatments at […]. The tissue receive medium and medium+hydroxypropyl tetrahydropyrantriol starting from Day 11 through Day 15 (n=3). At Day 15, the medium supernatant was collected to be measured with the sulfated glycosaminoglycan assay kit (ab289846, Abcam). For analysis, sGAG release of the supernatant was quantified based on vendor protocol.

[2] = system: Normal adult human epidermal keratinocytes (NHEK-Ad); assay: keratinocyte proliferation (Ki67 vs DAPI staining); assay type: cell-based; settings: 48 hours, FIG. 9 and FIG. 10
Procedure: Normal adult human epidermal keratinocytes (NHEK-Ad, Cat #00192627, Lonza, Switzerland) were maintained in basal growth medium (KGM Gold keratinocyte Growth Medium Bulletkit, Cat #00192060) until the initiation of the proliferation experiment. The keratinocytes were seeded at a concentration of 1×10^3/24 well and allowed to equilibrate overnight (n=3/group). The cell culture medium was switched with fresh growth containing different concentrations of hydroxypropyl tetrahydropyrantriol (0.005%, 0.017%, and 0.05%), NAM (0.0012%, 0.004%, and 0.012%) alone and combination of hydroxypropyl tetrahydropyrantriol+niacinamide (PX/NAM). The cells were incubated for 48 hours and the keratinocytes were stained against KI67 primary antibody (Anti-Ki67 antibody, Cat #ab15580, Abcam) and goat anti-rabbit IgG Alexa Fluor®488 secondary antibody (Cat #150077, Abcam). The Ki67 and DAPI fluorescent signals were captured using a fluorescent microscope (DMi8, Leica). The Ki67 expression was quantified against total cell nucleus staining (DAPI staining solution, ab228549, Abcam) in order to calculate the number of proliferating cells vs. total number of cells.

For CC(O)C[C@@H]1OC[C@@H](O)[C@H](O)[C@H]1O (stereo partly drawn) [hydroxypropyl tetrahydropyrantriol, C-beta-D-xylopyranoside-2-hydroxypropane], the sGAG release [1] was “increase sGAG release”.
NC(=O)c1cccnc1 [niacinamide] was tested, and the “skin cell proliferation (Ki67 vs total nuclei)” value ([2]; 0.004% niacinamide) was “significantly increase proliferation” and the “skin cell proliferation (Ki67 vs total nuclei)” value ([2]; 0.012% niacinamide) was “significantly increase proliferation”.
